# Source: ChEMBL document CHEMBL4270488, “Antibacterial Compounds from Marine Bacteria, 2010-2015” (J Nat Prod, 2017)
# Key:
# Staphylococcus aureus [1] = assay: Antibacterial activity against Staphylococcus aureus by broth dilution assay; format: functional
# Bacillus subtilis [2] = assay: Antibacterial activity against Bacillus subtilis by broth dilution assay; format: functional
# Escherichia coli [3] = assay: Antibacterial activity against Escherichia coli by broth dilution assay; format: functional
# Pseudomonas aeruginosa = assay: Antibacterial activity against Pseudomonas aeruginosa by broth dilution assay; format: functional
# Salmonella typhi = assay: Antibacterial activity against Salmonella typhi by broth dilution assay; format: functional, Salmonella enterica subsp. enterica serovar Typhi; conditions: Salmonella enterica
# Staphylococcus aureus [4] = assay: Antibacterial activity against methicillin-resistant Staphylococcus aureus; format: functional
# Bacillus subtilis [5] = assay: Antibacterial activity against Bacillus subtilis by serial dilution assay; format: functional
# Micrococcus luteus = assay: Antibacterial activity against Micrococcus luteus by serial dilution assay; format: functional
# Escherichia coli [6] = assay: Antibacterial activity against Escherichia coli by serial dilution assay; format: functional
# Proteus vulgaris = assay: Antibacterial activity against Proteus vulgaris by serial dilution assay; format: functional
# Staphylococcus aureus [7] = assay: Antibacterial activity against Staphylococcus aureus ATCC 29213; format: functional
compound,measurement,setting,value
C[C@@H]1CCCCC/C=C/[C@H](O)C[C@@H](O)C/C=C\C=C\[C@@H](O[C@@H]2O[C@H](CO)[C@@H](O)[C@H](O)[C@H]2O)C/C=C/C=C\C(=O)O1,MIC,Staphylococcus aureus [1],0.06 µg/mL
same,MIC,Bacillus subtilis [2],0.06 µg/mL
same,MIC,Escherichia coli [3],0.06 µg/mL
same,MIC,Pseudomonas aeruginosa,0.03 µg/mL
same,MIC,Salmonella typhi,0.03 µg/mL
CO[C@@H]1[C@@H](OC(N)=O)[C@@H](O)[C@H](Oc2ccc3c(O)c(NC(=O)c4ccc(O)c(CC=C(C)C)c4)c(=O)oc3c2C)OC1(C)C [NOVOBIOCIN],MIC,Staphylococcus aureus [4],0.25 µg/mL
C[C@@H]1CCC/C=C/C=C/[C@H](O)C[C@@H](O)[C@H](O)/C=C\C=C\[C@H](O)C/C=C/C=C\C(=O)O1,MIC,Staphylococcus aureus [1],0.1 µg/mL
same,MIC,Bacillus subtilis [2],0.1 µg/mL
same,MIC,Escherichia coli [3],0.1 µg/mL
O=C1NC(=O)C(c2ccc(O)c([N+](=O)[O-])c2)=C1c1ccccc1,MIC,Bacillus subtilis [5],25 to 100 µg/mL
same,MIC,Micrococcus luteus,25 to 100 µg/mL
same,MIC,Escherichia coli [6],25 to 100 µg/mL
same,MIC,Proteus vulgaris,25 to 100 µg/mL
O=C1NC(=O)C(c2ccc(O)c([N+](=O)[O-])c2)=C1c1ccc(O)cc1,MIC,Bacillus subtilis [5],25 to 100 µg/mL
same,MIC,Micrococcus luteus,25 to 100 µg/mL
same,MIC,Escherichia coli [6],25 to 100 µg/mL
same,MIC,Proteus vulgaris,25 to 100 µg/mL
COC(=O)CCC(=O)O[C@@H]1/C=C/C=C\C[C@H](O)C[C@@H](O)/C=C/C=C/CCC[C@@H](C)OC(=O)/C=C\C=C\C1,MIC,Bacillus subtilis [2],≥ 16 µg/mL
same,MIC,Escherichia coli [3],≥ 16 µg/mL
COC(=O)C[C@H](O)C[C@@H](O)C[C@H](O)/C=C/C=C/CCC[C@@H](C)O,MIC,Bacillus subtilis [2],≥ 16 µg/mL
same,MIC,Escherichia coli [3],≥ 16 µg/mL
CC(C)=CCc1cc(C(=O)Nc2c(O)c3ccc(O[C@@H]4OC(C)(C)[C@H](O)[C@@H](O)[C@H]4O)c(C)c3oc2=O)ccc1O,MIC,Staphylococcus aureus [4],> 64 µg/mL
CC(C)=CCc1cc(C(=O)Nc2c(O)c3ccc(O[C@@H]4OC(C)(C)[C@H](O)[C@@H](OC(N)=O)[C@H]4O)c(C)c3oc2=O)ccc1O,MIC,Staphylococcus aureus [4],8 to 16 µg/mL
O=C1NC(=O)C(c2ccc(O)c([N+](=O)[O-])c2)=C1c1ccc(O)c([N+](=O)[O-])c1,MIC,Bacillus subtilis [5],25 to 100 µg/mL
same,MIC,Micrococcus luteus,25 to 100 µg/mL
same,MIC,Escherichia coli [6],25 to 100 µg/mL
same,MIC,Proteus vulgaris,25 to 100 µg/mL
COC(=O)N[C@H]1[C@@H](C)O[C@@H](O[C@H]2C/C=C(\C)[C@@H]3C=C[C@@H]4[C@@H](O[C@H]5C[C@@H](O[C@H]6C[C@@H](O)[C@@H](O)[C@H](C)O6)[C@@H](O)[C@H](C)O5)[C@@H](C)C[C@H](C)[C@H]4[C@]3(C)C(=O)C3=C(O)[C@@]4(C[C@@H](C)C(C)=C[C@H]4/C=C/2C)OC3=O)C[C@]1(C)[N+](=O)[O-],MIC,Staphylococcus aureus [7],6.2 to 50 µg/mL
C[C@@H]1CCC/C=C/C=C/[C@H](O)C[C@@H](O)[C@H](O)/C=C\C=C\[C@@H](O)C/C=C/C=C\C(=O)O1,MIC,Staphylococcus aureus [1],0.1 µg/mL
same,MIC,Bacillus subtilis [2],100 µg/mL
same,MIC,Escherichia coli [3],0.3 µg/mL
O=C1NC(=O)C(c2ccc(O)cc2)=C1c1ccccc1,MIC,Bacillus subtilis [5],25 to 100 µg/mL
same,MIC,Micrococcus luteus,25 to 100 µg/mL
same,MIC,Escherichia coli [6],25 to 100 µg/mL
same,MIC,Proteus vulgaris,25 to 100 µg/mL
C[C@@H]1CCC/C=C/C=C/[C@H](O)C[C@@H](O)C[C@@H]2O[C@@H]2/C=C/[C@@H](O)C/C=C/C=C\C(=O)O1 [GAGEOMACROLACTIN 1],MIC,Staphylococcus aureus [1],0.01 µg/mL
same,MIC,Bacillus subtilis [2],0.01 µg/mL
same,MIC,Escherichia coli [3],0.02 µg/mL
same,MIC,Pseudomonas aeruginosa,0.01 µg/mL
same,MIC,Salmonella typhi,0.02 µg/mL
O=C1N/C(=N\O)C(c2ccc(O)c([N+](=O)[O-])c2)=C1c1ccc(O)c([N+](=O)[O-])c1,MIC,Bacillus subtilis [5],3 to 25 µg/mL
same,MIC,Micrococcus luteus,3 to 25 µg/mL
same,MIC,Escherichia coli [6],3 to 25 µg/mL
same,MIC,Proteus vulgaris,3 to 25 µg/mL
CC(=O)[C@H]1[C@@H]2C=C[C@@H]3[C@H]4C/C=C\C(=O)NCCC[C@H]5C(O)=C(C(=O)/C=C/[C@@H]4C[C@@H]3[C@H]2C[C@H]1C)C(=O)N5C,MIC,Staphylococcus aureus [4],32 to 64 µg/mL
C[C@@H]1CCC[C@@H](O)/C=C/[C@@H]2O[C@@H]2C[C@@H](O)C/C=C\C=C\[C@@H](O)C/C=C/C=C\C(=O)O1,MIC,Bacillus subtilis [2],16 µg/mL
same,MIC,Escherichia coli [3],16 µg/mL
